Values quoted from earlier work, collected in patent EP1030653B1, “DINITROANILINE LIPOSOMAL FORMULATIONS AND PROCESSES FOR THEIR PREPARATION” (INSTITUTO NACIONAL DE ENGENHARIA E TECNOLOGIA …, priority 1998, dated 2000).

System: Leishmania sp

CCCN(CCC)c1c([N+](=O)[O-])cc(C(F)(F)F)cc1[N+](=O)[O-] [trifluralin]
activity against the visceral forms (topical route, literature (12)): no activity

N=C(N)c1ccc(OCCCCCOc2ccc(C(=N)N)cc2)cc1 [pentamidine]
efficacy (in words) (literature): less efficacy than antimonial derivatives

CC(=O)N(O)CCCCCNC(=O)CCC(=O)N(O)CCCCCNC(=O)CCC(=O)N(O)CCCCCN [desferrioxiamine]
efficiency (literature (32)): 44%

CN(Cc1cnc2nc(N)nc(N)c2n1)c1ccc(C(=O)N[C@@H](CCC(=O)O)C(=O)O)cc1 [methotrexate]
reduction on the infection level (literature (10, 11)): 85%

CCC1=C(C[C@H]2NCCc3cc(OC)c(OC)cc32)C[C@H]2c3cc(OC)c(OC)cc3CCN2C1 [dehydroemetine]
cure: 67%
